Patent publication US20220211652A1, “USE OF AN RXR AGONIST IN TREATING HER2+ CANCERS” (Io Therapeutics, Inc, priority 2019, published 2022)

Tests used:
RARα = RARα (Homo sapiens, UniProt P10276); conditions: α isoform
SkBr3 cells = assay: Growth inhibition of SkBr3 breast cancer cells, DAPI nuclei count; assay type: cell-based; conditions: Her2+ SkBr3 cell line, FIG. 1B; IRX4204 10-1000 nM, trastuzumab 0.1-10 μg/ml
Description: (§1) MCF7 is an ER^+ PR^+ Her2^− cell line. SkBr3 is an ER^− PR^− Her2^+ cell line. […] After a further 6 days, the cells were fixed with 4% paraformaldehyde in phosphate buffered saline (PBS).
(§2) Additionally the panel of breast cancer cell lines was expanded to also include the ER^+ PR^+ Her2^+ cell line BT474 and the ER^+ PR^− Her2^+ cell line MDA-MB-361.

Nurr1/RXR heterodimer = assay: Activation of permissive heterodimer Nurr1/RXR; assay type: cell-based
MCF7 cells = assay: Growth inhibition of MCF7 breast cancer cells, DAPI nuclei count; assay type: cell-based; conditions: Her2− MCF7 cell line, FIG. 1A; IRX4204 10-1000 nM, trastuzumab 0.1-10 μg/ml
Description: as §1, §2

RARβ = RARβ (Homo sapiens, UniProt P10826); conditions: β isoform
RARβ, sequence (P10826 whole entry, species assumed, canonical isoform): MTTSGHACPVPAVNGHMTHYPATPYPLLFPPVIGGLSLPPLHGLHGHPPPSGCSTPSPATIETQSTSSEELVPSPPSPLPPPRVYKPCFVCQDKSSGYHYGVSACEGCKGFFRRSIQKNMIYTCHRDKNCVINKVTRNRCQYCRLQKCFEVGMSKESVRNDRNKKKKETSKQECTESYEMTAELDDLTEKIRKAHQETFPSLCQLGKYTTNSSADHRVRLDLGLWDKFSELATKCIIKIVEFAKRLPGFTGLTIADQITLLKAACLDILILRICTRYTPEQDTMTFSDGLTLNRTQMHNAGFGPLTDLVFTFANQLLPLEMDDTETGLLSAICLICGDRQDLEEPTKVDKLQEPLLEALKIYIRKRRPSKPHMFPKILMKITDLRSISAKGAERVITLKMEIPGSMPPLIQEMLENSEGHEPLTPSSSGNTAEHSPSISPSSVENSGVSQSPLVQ

RARγ = RARγ (Homo sapiens, UniProt P13631); conditions: γ isoform
RARγ, sequence (P13631 whole entry, species assumed, canonical isoform): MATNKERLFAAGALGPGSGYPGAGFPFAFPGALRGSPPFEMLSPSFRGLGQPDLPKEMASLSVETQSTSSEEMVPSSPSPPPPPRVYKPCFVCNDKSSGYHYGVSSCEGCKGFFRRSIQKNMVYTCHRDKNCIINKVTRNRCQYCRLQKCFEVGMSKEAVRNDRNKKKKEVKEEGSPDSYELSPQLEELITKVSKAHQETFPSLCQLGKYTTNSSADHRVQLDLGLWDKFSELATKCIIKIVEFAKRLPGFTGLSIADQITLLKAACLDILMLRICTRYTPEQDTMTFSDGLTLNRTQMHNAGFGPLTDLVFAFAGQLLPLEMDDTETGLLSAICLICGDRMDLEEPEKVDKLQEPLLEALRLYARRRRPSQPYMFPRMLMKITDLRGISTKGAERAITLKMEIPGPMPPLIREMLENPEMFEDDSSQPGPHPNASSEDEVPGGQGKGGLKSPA

LXR/RXR = assay: Activation of permissive heterodimer LXR/RXR; assay type: cell-based
RAR/RXR = assay: Activation of non-permissive heterodimer RAR/RXR; assay type: cell-based
RXR homodimers = assay: Activation of RXR homodimers; assay type: cell-based
PPAR/RXR = assay: Activation of permissive heterodimer PPAR/RXR; assay type: cell-based
FXR/RXR = assay: Activation of permissive heterodimer FXR/RXR; assay type: cell-based
[1] = test system: PPAR/RXR, FXR/RXR, or LXR/RXR; conditions: cited from earlier work

RARα, sequence (P10276 whole entry, species assumed, canonical isoform): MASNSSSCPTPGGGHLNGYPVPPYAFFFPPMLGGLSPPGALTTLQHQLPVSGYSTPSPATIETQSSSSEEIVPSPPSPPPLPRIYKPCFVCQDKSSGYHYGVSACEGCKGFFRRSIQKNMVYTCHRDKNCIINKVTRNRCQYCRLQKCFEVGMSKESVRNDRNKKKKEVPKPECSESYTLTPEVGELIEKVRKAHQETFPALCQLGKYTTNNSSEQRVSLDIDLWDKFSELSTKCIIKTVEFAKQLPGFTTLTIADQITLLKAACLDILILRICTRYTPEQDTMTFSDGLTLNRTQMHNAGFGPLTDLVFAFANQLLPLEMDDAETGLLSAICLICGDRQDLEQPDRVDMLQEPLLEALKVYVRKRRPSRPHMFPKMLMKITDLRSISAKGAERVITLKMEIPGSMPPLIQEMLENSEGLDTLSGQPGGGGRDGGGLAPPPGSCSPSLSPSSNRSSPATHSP

| Compound | RAR EC10 (concentration effective to cause a 10% of maximal activation of the RAR) (RARα) [nM] | growth inhibitory effect (in words) (SkBr3 cells) | activation of the Nurr1/RXR heterodimer (in words) (Nurr1/RXR heterodimer) | growth inhibitory effect (in words) (MCF7 cells) | RAR EC10 (concentration effective to cause a 10% of maximal activation of the RAR) (RARβ) [nM] | RAR EC10 (concentration effective to cause a 10% of maximal activation of the RAR) (RARγ) [nM] | activation of LXR/RXR (in words) (LXR/RXR) | activation of non-permissive heterodimers such as RAR/RXR (in words) (RAR/RXR) | activation of RXR homodimers (in words) (RXR homodimers) | activation of PPAR/RXR (in words) (PPAR/RXR) | activation of FXR/RXR (in words) (FXR/RXR) | activation of one or more of PPAR/RXR, FXR/RXR, or LXR/RXR (in words) [1] |
| --- | --- | --- | --- | --- | --- | --- | --- | --- | --- | --- | --- | --- |
| CC(/C=C/[C@@H]1C[C@]1(C)c1ccc2c(c1)C(C)(C)CCC2(C)C)=C\C(=O)O [IRX4204, 3,7-dimethyl-6(S),7(S)-methano,7-[1,1,4,4-tetramethyl-1,2,3,4-tetrahydron-aphth-7-yl]2(E), 4(E) heptadienoic acid] | 300 | moderate growth inhibitory effect | specifically activates | neither agent had more than marginal effect | 200 | 200 | does not activate | does not activate | specifically activate | does not activate | does not activate | – |
| Cc1cc2c(cc1C1(c3ccc(C(=O)O)cn3)CC1)C(C)(C)CCC2(C)C [LGD268] | – | – | – | – | – | – | – | – | – | – | – | activates one or more |
